Results taken from patent US8207178B2 (priority 2007, dated 2012).

What was measured:
HIV-1 K103N-L100I mutant = experiment: microbe, parasite or virus in culture; type: cell-based, human immunodeficiency virus type 1 (HIV-1); conditions: Human immunodeficiency virus 1, HeLa, read-out: EC50 mutant K103N-L100I, mutant K103N-L100I
wild type HIV-1 = experiment: microbe, parasite or virus in culture; type: cell-based, human immunodeficiency virus type 1 (HIV-1); conditions: Human immunodeficiency virus 1, Hela-JC53

Structure (SMILES)	EC50 (HIV-1 K103N-L100I mutant) [µM]	EC50 (wild type HIV-1) [µM]
N#Cc1ccc(Nc2nc(Oc3c(Cl)cc(-c4ccncc4)cc3Cl)c3[nH]cnc3n2)cc1 [Example 104, 4-(6-(2,6-Dichloro-4-(pyridin-4-yl)phenoxy)-7H-purin-2-ylamino)benzonitrile]	0.001 to 0.01	0.001 to 0.01
COc1ccc(Cn2cnc3c(Oc4ccc(-c5ccncc5)cc4)nc(Nc4c(C)cc(C#N)cc4C)nc32)cc1 [Example 105, 4-(9-(4-Methoxybenzyl)-6-(4-(pyridin-4-yl)phenoxy)-9H-purin-2-ylamino)-3,5-dimethylbenzonitrile]	> 0.01	> 0.01
Cc1cc(C#N)cc(C)c1Nc1nc(Oc2ccc(-c3ccncc3)cc2)c2nc[nH]c2n1 [Example 106, 3,5-Dimethyl-4-(6-(4-(pyridin-4-yl)phenoxy)-9H-purin-2-ylamino)benzonitrile]	> 0.01	> 0.01
Cc1cc(-c2ccncc2)cc(C)c1Oc1nc(Nc2ccc(C#N)cc2)nc2ncn(C)c12 [Example 107, 4-(6-(2,6-Dimethyl-4-(pyridin-4-yl)phenoxy)-7-methyl-7H-purin-2-ylamino)benzonitrile]	0.001 to 0.01	0.001 to 0.01
Cc1cc(-c2ccncc2)cc(C)c1Oc1nc(Nc2ccc(C#N)cc2)nc2c1ncn2C [Example 108, 4-(6-(2,6-dimethyl-4-(pyridin-4-yl)phenoxy)-9-methyl-9H-purin-2-ylamino)benzonitrile]	0.001 to 0.01	0.001 to 0.01
Cc1cc(-c2ccc(C(N)=O)cc2)cc(C)c1Oc1nc(Nc2ccc(C#N)cc2)nc2c1ncn2C [Example 109, 4′-(2-(4-cyanophenylamino)-9-methyl-9H-purin-6-yloxy)-3′,5′-dimethylbiphenyl-4-carboxamide]	0.001 to 0.01	< 0.001
Cc1cc(-c2ccc(C(=O)O)cc2)cc(C)c1Oc1nc(Nc2ccc(C#N)cc2)nc2ncn(C)c12 [Example 110, 4′-(2-(4-Cyanophenylamino)-7-methyl-7H-purin-6-yloxy)-3′,5′-dimethylbiphenyl-4-carboxylic acid]	> 0.01	> 0.01
Cn1cnc2nc(Nc3ccc(C#N)cc3)nc(Oc3c(Cl)cc(-c4ccc(C(N)=O)cc4)cc3Cl)c21 [Example 112, 3′,5′-dichloro-4′-(2-(4-cyanophenylamino)-7-methyl-7H-purin-6-yloxy)biphenyl-4-carboxamide]	0.001 to 0.01	< 0.001
Cc1cc(-c2ccc(S(N)(=O)=O)cc2)cc(Cl)c1Oc1nc(Nc2ccc(C#N)cc2)nc2c1ncn2C [Example 113, 3′-chloro-4′-(2-(4-cyanophenylamino)-9-methyl-9H-purin-6-yloxy)-5′-methylbiphenyl-4-sulfonamide]	0.001 to 0.01	< 0.001
Cn1cnc2c(Oc3c(Cl)cc(-c4ccc(C(N)=O)cc4)cc3Cl)nc(Nc3ccc(C#N)cc3)nc21 [Example 114, 3′,5′-dichloro-4′-(2-(4-cyanophenylamino)-9-methyl-9H-purin-6-yloxy)biphenyl-4-carboxamide]	> 0.01	< 0.001
Cc1cc(-c2ccc(S(N)(=O)=O)cc2)cc(Cl)c1Oc1nc(Nc2ccc(C#N)cc2)nc2ncn(C)c12 [Example 115, 3′-chloro-4′-(2-(4-cyanophenylamino)-7-methyl-7H-purin-6-yloxy)-5′-methylbiphenyl-4-sulfonamide]	< 0.001	< 0.001
Cc1cc(-c2ccc(C(N)=O)cc2)cc(Cl)c1Oc1nc(Nc2ccc(C#N)cc2)nc2ncn(C)c12 [Example 116, 3′-chloro-4′-(2-(4-cyanophenylamino)-7-methyl-7H-purin-6-yloxy)-5′-methylbiphenyl-4-carboxamide]	0.001 to 0.01	< 0.001
Cc1cc(-c2ccc(C(N)=O)cc2)cc(Cl)c1Oc1nc(Nc2ccc(C#N)cc2)nc2c1ncn2C [Example 117, 3′-chloro-4′-(2-(4-cyanophenylamino)-9-methyl-9H-purin-6-yloxy)-5′-methylbiphenyl-4-carboxamide]	0.001 to 0.01	< 0.001
Cc1cc(-c2ccc(C(N)=O)nc2)cc(C)c1Oc1nc(Nc2ccc(C#N)cc2)nc2ncn(C)c12 [Example 118, 5-(4-(2-(4-cyanophenylamino)-7-methyl-7H-purin-6-yloxy)-3,5-dimethylphenyl)picolinamide]	0.001 to 0.01	0.001 to 0.01
Cc1cc(-c2ccc(C(N)=O)nc2)cc(C)c1Oc1nc(Nc2ccc(C#N)cc2)nc2c1ncn2C [Example 119, 5-(4-(2-(4-cyanophenylamino)-9-methyl-9H-purin-6-yloxy)-3,5-dimethylphenyl)picolinamide]	> 0.01	< 0.001
CCOC(=O)c1ccc(-c2cc(C)c(Oc3nc(Nc4ccc(C#N)cc4)nc4nc[nH]c34)c(C)c2)cn1 [Example 120, Ethyl 5-(4-(2-(4-cyanophenylamino)-7H-purin-6-yloxy)-3,5-dimethylphenyl)picolinate]	> 0.01	> 0.01
Cc1cc(-c2ccc(C(N)=O)cn2)cc(C)c1Oc1nc(Nc2ccc(C#N)cc2)nc2c1ncn2C [Example 124, 6-(4-(2-(4-cyanophenylamino)-9-methyl-9H-purin-6-yloxy)-3,5-dimethylphenyl)nicotinamide]	> 0.01	0.001 to 0.01
Cc1cc(-c2ccc(C(=O)N3CCC3)cn2)cc(C)c1Oc1nc(Nc2ccc(C#N)cc2)nc2[nH]cnc12 [Example 125, 4-(6-(4-(5-(azetidine-1-carbonyl)pyridin-2-yl)-2,6-dimethylphenoxy)-9H-purin-2-ylamino)benzonitrile]	0.001 to 0.01	0.001 to 0.01
Cc1cc(-c2ccc(C(=O)N3CCC(C#N)C3)cn2)cc(C)c1Oc1nc(Nc2ccc(C#N)cc2)nc2[nH]cnc12 (centres unmarked) [Example 127, 1-(6-(4-(2-(4-cyanophenylamino)-9H-purin-6-yloxy)-3,5-dimethylphenyl)nicotinoyl)pyrrolidine-3-carbonitrile]	> 0.01	> 0.01
Cc1cc(-c2ccc(C(=O)N(C)C)cn2)cc(C)c1Oc1nc(Nc2ccc(C#N)cc2)nc2[nH]cnc12 [Example 128, 6-(4-(2-(4-cyanophenylamino)-9H-purin-6-yloxy)-3,5-dimethylphenyl)-N,N-dimethylnicotinamide]	> 0.01	0.001 to 0.01
Cc1cc(-c2ccc(C(N)=O)nc2)cc(C)c1Oc1nc(Nc2ccc(C#N)cc2)nc2[nH]cnc12 [Example 129, 5-(4-(2-(4-cyanophenylamino)-9H-purin-6-yloxy)-3,5-dimethylphenyl)picolinamide]	> 0.01	0.001 to 0.01
COC(=O)c1ccc(-c2cc(C)c(Oc3nc(Nc4ccc(C#N)cc4)nc4[nH]cnc34)c(C)c2)cn1 [Example 130, Methyl 5-(4-(2-(4-cyanophenylamino)-9H-purin-6-yloxy)-3,5-dimethylphenyl)picolinate]	> 0.01	0.001 to 0.01
